Measured values as given in ChEMBL document CHEMBL3991601, “The target landscape of clinical kinase drugs” (Science, 2017).
pKd: −log10 of the molar value. Calls of active or inactive are those of the source. Rule as the data show it, for most assays here: actives have a measured Kd and inactives only a lower limit.

How the values were obtained:
[1] = target: T1, Serine/threonine-protein kinase A-Raf (Homo sapiens, UniProt P10398)
T1 sequence (P10398 whole entry): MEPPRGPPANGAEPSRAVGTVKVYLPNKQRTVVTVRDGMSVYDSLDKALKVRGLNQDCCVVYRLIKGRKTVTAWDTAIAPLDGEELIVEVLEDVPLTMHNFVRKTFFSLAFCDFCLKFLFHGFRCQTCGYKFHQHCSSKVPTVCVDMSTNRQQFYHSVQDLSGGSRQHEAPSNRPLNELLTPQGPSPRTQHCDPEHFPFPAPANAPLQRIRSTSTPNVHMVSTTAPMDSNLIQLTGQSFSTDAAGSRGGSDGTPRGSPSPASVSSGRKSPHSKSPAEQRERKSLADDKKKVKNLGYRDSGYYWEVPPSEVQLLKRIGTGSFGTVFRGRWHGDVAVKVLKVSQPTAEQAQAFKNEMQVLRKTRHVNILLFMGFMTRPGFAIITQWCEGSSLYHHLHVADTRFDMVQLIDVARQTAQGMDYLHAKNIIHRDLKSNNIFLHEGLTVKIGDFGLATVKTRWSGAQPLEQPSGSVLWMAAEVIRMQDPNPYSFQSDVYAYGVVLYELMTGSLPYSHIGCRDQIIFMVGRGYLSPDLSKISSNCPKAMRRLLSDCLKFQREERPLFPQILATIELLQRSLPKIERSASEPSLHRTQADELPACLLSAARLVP

[2] = target: Bone morphogenetic protein receptor type-1B (Homo sapiens, UniProt O00238)
[3] = target: T2, Bone morphogenetic protein receptor type-2 (Homo sapiens, UniProt Q13873)
T2 sequence (Q13873 whole entry): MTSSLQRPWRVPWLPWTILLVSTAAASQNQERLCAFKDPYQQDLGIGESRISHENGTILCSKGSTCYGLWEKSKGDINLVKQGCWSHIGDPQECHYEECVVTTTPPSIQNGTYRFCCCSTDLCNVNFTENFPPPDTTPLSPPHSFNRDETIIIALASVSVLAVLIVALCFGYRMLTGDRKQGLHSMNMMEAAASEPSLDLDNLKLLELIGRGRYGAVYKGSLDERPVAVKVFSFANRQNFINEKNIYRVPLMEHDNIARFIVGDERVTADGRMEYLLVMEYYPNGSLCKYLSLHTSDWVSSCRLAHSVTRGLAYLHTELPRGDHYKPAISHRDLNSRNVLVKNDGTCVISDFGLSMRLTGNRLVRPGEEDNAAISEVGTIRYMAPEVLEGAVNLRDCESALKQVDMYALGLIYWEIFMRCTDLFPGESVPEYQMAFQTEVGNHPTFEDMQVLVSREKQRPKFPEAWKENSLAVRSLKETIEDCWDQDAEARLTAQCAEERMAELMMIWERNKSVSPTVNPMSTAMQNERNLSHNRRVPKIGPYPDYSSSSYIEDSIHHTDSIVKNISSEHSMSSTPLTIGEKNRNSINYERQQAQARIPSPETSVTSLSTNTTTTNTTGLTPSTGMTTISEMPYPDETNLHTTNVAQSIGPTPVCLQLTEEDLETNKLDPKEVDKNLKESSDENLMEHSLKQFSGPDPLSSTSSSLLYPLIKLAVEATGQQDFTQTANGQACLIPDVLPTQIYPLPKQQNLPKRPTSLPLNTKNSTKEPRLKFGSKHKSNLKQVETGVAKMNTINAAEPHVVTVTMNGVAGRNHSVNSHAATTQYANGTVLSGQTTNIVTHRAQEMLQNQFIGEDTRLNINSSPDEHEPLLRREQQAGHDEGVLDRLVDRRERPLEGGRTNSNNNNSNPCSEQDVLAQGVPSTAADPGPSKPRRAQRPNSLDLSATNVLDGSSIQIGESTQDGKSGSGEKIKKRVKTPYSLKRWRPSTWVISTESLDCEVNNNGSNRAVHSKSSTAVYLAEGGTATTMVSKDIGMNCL

[4] = target: Tyrosine-protein kinase BTK (Homo sapiens, UniProt Q06187)
[5] = target: Mitogen-activated protein kinase 14 (Homo sapiens, UniProt Q16539)
[6] = target: T3, Tyrosine--tRNA ligase, cytoplasmic (Homo sapiens, UniProt P54577)
T3 sequence (P54577 whole entry): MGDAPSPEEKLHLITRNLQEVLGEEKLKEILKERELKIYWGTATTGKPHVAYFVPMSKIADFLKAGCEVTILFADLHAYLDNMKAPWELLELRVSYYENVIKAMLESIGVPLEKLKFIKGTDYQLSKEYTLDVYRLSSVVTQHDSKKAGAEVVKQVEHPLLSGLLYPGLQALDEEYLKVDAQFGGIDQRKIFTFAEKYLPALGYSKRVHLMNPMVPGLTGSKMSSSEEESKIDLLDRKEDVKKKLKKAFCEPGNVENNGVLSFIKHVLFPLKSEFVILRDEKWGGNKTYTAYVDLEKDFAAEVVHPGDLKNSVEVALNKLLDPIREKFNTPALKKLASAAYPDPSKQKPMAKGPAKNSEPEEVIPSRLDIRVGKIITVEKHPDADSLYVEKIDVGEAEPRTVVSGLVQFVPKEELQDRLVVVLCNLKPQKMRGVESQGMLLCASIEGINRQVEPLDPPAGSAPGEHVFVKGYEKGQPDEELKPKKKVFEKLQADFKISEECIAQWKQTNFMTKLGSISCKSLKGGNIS

[7] = target: Serine/threonine-protein kinase/endoribonuclease IRE1 (Homo sapiens, UniProt O75460)
[8] = target: Casein kinase I isoform delta (Homo sapiens, UniProt P48730)
Also: in the data inactive means no Kd found up to 30 µM.

Mitogen-activated protein kinase 14, sequence (Q16539 whole entry): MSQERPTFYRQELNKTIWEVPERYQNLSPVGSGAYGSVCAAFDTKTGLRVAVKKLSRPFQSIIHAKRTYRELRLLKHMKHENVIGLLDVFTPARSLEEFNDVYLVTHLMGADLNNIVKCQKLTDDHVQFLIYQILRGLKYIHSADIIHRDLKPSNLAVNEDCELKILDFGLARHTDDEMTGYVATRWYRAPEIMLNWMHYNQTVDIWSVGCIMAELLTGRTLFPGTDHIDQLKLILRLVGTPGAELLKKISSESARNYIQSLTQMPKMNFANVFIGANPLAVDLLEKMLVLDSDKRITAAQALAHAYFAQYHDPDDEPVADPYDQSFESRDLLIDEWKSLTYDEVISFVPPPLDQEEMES
Bone morphogenetic protein receptor type-1B, sequence (O00238 whole entry): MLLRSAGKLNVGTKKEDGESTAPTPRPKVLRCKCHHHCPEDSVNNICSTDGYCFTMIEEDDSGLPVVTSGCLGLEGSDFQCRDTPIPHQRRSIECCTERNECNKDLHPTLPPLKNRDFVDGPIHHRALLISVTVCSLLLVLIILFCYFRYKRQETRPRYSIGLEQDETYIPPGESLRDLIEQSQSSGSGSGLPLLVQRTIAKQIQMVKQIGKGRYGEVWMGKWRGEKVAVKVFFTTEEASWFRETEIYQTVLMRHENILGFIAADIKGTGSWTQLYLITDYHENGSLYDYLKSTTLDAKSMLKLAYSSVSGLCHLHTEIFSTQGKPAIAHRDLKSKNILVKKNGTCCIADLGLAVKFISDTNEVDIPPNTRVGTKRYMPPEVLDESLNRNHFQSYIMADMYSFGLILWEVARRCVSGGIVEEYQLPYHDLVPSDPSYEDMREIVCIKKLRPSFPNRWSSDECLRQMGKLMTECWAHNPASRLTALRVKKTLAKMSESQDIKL
Serine/threonine-protein kinase/endoribonuclease IRE1, sequence (O75460 whole entry, canonical isoform): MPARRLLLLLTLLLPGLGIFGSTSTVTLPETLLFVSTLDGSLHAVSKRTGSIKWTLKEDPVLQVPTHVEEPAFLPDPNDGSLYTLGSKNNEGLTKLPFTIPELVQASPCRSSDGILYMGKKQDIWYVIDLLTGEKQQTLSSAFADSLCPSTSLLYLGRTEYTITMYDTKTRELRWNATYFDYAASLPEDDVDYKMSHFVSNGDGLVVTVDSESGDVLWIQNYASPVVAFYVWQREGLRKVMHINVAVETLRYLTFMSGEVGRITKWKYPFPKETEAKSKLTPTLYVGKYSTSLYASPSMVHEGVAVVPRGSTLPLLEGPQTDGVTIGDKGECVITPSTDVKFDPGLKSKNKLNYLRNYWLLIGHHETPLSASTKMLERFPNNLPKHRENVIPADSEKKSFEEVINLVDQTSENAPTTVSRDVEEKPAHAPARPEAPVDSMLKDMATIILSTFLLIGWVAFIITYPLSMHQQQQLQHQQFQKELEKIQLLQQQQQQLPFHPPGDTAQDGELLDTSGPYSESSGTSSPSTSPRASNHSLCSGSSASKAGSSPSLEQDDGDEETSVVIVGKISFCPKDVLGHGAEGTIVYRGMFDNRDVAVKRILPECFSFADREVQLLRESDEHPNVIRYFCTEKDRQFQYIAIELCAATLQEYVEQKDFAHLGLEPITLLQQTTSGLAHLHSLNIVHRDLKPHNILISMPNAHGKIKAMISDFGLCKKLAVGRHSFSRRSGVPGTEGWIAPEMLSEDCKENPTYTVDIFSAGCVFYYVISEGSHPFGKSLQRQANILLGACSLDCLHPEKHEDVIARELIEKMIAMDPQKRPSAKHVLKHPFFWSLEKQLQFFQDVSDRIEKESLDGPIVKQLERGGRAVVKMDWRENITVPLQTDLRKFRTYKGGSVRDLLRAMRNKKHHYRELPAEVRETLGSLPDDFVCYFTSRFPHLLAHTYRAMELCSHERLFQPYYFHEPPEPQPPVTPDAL
Casein kinase I isoform delta, sequence (P48730 whole entry, canonical isoform): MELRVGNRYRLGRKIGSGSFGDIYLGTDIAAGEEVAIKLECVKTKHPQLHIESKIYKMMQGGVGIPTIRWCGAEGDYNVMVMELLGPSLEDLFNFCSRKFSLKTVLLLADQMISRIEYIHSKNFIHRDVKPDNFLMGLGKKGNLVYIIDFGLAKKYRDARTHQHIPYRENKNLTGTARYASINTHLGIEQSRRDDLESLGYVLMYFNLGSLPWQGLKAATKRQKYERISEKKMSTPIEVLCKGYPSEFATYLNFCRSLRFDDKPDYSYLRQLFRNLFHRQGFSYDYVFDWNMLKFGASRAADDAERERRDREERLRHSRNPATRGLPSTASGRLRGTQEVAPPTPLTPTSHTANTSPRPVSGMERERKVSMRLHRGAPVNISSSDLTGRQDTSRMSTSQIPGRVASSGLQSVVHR
Tyrosine-protein kinase BTK, sequence (Q06187 whole entry): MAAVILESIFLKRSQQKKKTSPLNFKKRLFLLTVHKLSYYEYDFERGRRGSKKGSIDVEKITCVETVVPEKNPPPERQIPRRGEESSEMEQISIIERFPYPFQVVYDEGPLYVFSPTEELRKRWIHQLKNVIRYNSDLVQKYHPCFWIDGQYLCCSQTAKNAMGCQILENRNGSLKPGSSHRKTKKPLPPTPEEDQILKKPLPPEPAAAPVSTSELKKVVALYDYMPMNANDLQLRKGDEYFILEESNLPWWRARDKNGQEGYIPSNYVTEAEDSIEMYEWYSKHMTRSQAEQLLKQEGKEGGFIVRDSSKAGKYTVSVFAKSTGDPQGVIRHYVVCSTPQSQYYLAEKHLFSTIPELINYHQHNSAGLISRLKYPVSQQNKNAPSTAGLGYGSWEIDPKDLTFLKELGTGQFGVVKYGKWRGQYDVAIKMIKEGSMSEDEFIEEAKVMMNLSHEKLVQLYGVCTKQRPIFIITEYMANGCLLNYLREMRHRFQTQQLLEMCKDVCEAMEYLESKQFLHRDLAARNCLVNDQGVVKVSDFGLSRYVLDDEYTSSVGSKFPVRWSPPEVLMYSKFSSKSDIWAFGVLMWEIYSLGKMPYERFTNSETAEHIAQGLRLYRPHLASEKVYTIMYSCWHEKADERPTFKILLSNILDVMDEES

SMILES	Kd [1]	Kd [2]	Kd [3]	Kd [4]	Kd [5]	Kd [6]	Kd [7]	Kd [8]	pKd [3]
CC(=O)c1cnc2ccc(-c3cc(Cl)c(O)c(Cl)c3)nc2c1N[C@H]1CC[C@H](CN(C)C)CC1	> 30 µM (inactive)	0.002 µM (active)	> 30 µM (inactive)	0.361 µM (active)	> 30 µM (inactive)	> 30 µM (inactive)	–	–	–
COc1cc(Nc2ncc3c(n2)-c2ccc(Cl)cc2C(c2c(F)cccc2OC)=NC3)ccc1C(=O)O [ALISERTIB]	> 30 µM (inactive)	> 30 µM (inactive)	> 30 µM (inactive)	–	–	> 30 µM (inactive)	> 30 µM (inactive)	–	–
CNC(=O)c1ccccc1Sc1ccc2c(/C=C/c3ccccn3)n[nH]c2c1 [AXITINIB]	> 30 µM (inactive)	–	–	–	–	> 30 µM (inactive)	–	–	–
NC(=O)Nc1cc(-c2cccc(F)c2)sc1C(=O)N[C@H]1CCCNC1 [AZD-7762]	> 30 µM (inactive)	> 30 µM (inactive)	> 30 µM (inactive)	3.07 µM (active)	> 30 µM (inactive)	> 30 µM (inactive)	–	> 30 µM (inactive)	–
CC(C)(C)c1nc(-c2cccc(NS(=O)(=O)c3c(F)cccc3F)c2F)c(-c2ccnc(N)n2)s1 [DABRAFENIB]	0.047 µM (active)	> 30 µM (inactive)	> 30 µM (inactive)	–	–	> 30 µM (inactive)	1.45 µM (active)	> 30 µM (inactive)	–
Cn1cc(C2=C(c3cn(C4CCN(Cc5ccccn5)CC4)c4ccccc34)C(=O)NC2=O)c2ccccc21 [ENZASTAURIN]	> 30 µM (inactive)	–	–	–	–	> 30 µM (inactive)	–	–	–
C[C@@H](Oc1cc(-n2cnc3ccc(CN4CCN(C)CC4)cc32)sc1C(N)=O)c1ccccc1C(F)(F)F [GSK-461364]	> 30 µM (inactive)	–	–	–	–	> 30 µM (inactive)	–	–	–
CCn1cc(-c2ccnc3[nH]c(-c4cccc(CN(C)C)c4)cc23)c(-c2ccc(NC(=O)N(C)C)cc2)n1 [GSK-1070916]	> 30 µM (inactive)	–	> 30 µM (inactive)	–	8.5 µM (active)	> 30 µM (inactive)	> 30 µM (inactive)	–	–
Cc1[nH]c(/C=C2\C(=O)Nc3ccccc32)c(C)c1CCC(=O)O [ORANTINIB]	> 30 µM (inactive)	> 30 µM (inactive)	0.019 µM (active)	–	> 30 µM (inactive)	> 30 µM (inactive)	–	–	–
NC(=O)c1c(OCc2c(F)cc(Br)cc2F)nsc1NC(=O)NCCCCN1CCCC1 [OSI-632]	> 30 µM (inactive)	> 30 µM (inactive)	> 30 µM (inactive)	–	–	> 30 µM (inactive)	> 30 µM (inactive)	–	–
CCCCCCCCCCCCCCCCCCOP(=O)([O-])OC1CC[N+](C)(C)CC1 [PERIFOSINE]	> 30 µM (inactive)	> 30 µM (inactive)	> 30 µM (inactive)	> 30 µM (inactive)	–	> 30 µM (inactive)	> 30 µM (inactive)	> 30 µM (inactive)	–
CC(=O)NCC(=O)N1[C@@H]2CC[C@H]1c1ccc(Nc3ncc(C(F)(F)F)c(NC4CCC4)n3)cc12 [PF-03814735]	> 30 µM (inactive)	> 30 µM (inactive)	–	–	–	> 30 µM (inactive)	3.64 µM (active)	–	8.10
CNC(=O)c1cc(Oc2ccc(NC(=O)Nc3cc(C(C)(C)C)nn3-c3ccc4ncccc4c3)c(F)c2)ccn1 [REBASTINIB]	33.7 µM (active)	> 30 µM (inactive)	> 30 µM (inactive)	1.22 µM (active)	2.76 µM (active)	> 30 µM (inactive)	–	> 30 µM (inactive)	–
O=C(NOCCO)c1cc(CN2OCCCC2=O)c(F)c(F)c1Nc1ccc(I)cc1F [RO-4987655]	> 30 µM (inactive)	–	–	–	–	> 30 µM (inactive)	–	–	–
N#CC[C@H](C1CCCC1)n1cc(-c2ncnc3[nH]ccc23)cn1 [RUXOLITINIB]	> 30 µM (inactive)	–	–	–	–	> 30 µM (inactive)	–	–	–
C[C@@H](N)c1ccc(C(=O)Nc2ccnc3[nH]ccc23)cc1 [Y-39983]	> 30 µM (inactive)	> 30 µM (inactive)	> 30 µM (inactive)	> 30 µM (inactive)	–	> 30 µM (inactive)	> 30 µM (inactive)	> 30 µM (inactive)	–
